How the values were obtained:
Assay type in all cases: cell-based
Details in all cases: Homo sapiens
[1] = system: LNCaP-Myb Myb-overexpressing androgen-dependent prostate cancer cells; test: Docetaxel cell viability, LNCaP-Myb cells
Method: (§1) Castration-resistant prostate cancer cells (C4-2), Myb-knockdown castration-resistant prostate cancer cells (C4-2 shMyb), androgen-dependent prostate cancer cells (LNCap-Neo), Myb-overexpressing androgen-dependent prostate cancer cells (LNCaP-Myb), were treated with increasing concentrations of Docetaxel and the viability tested at 48 hr and 72 hr post-treatment. […] Table 2 summarizes the IC50 values for docetaxel in the various cell lines.

[2] = system: C4-2 shMyb Myb-knockdown castration-resistant prostate cancer cells; test: Docetaxel cell viability, C4-2shMyb cells
Method: as §1

[3] = system: LNCaP-Neo androgen-dependent prostate cancer cells; test: Docetaxel cell viability, LNCaP-Neo cells
Method: as §1

[4] = system: C4-2 castration-resistant prostate cancer cells; test: Docetaxel cell viability, C4-2 cells
Method: as §1

IC50 ([1]; 48 hours): 20.6 µM | IC50 ([1]; 72 hours): 14.8 µM | IC50 ([2]; 48 hours): 7 µM | IC50 ([2]; 72 hours): 4.8 µM | IC50 ([3]; 48 hours): 7.6 µM | IC50 ([3]; 72 hours): 4.9 µM | IC50 ([4]; C4-2, 48 hours): 18.2 µM | IC50 ([4]; C4-2, 72 hours): 13.1 µM
Structure (SMILES): CC(=O)O[C@@]12CO[C@@H]1C[C@H](O)[C@@]1(C)C(=O)[C@H](O)C3=C(C)[C@@H](OC(=O)[C@H](O)[C@@H](NC(=O)OC(C)(C)C)c4ccccc4)C[C@@](O)([C@@H](OC(=O)c4ccccc4)[C@H]21)C3(C)C [Docetaxel]

Reference: patent US9458456B2, “Methods and compositions for the diagnosis, classification, and treatment of cancer” (UNIVERSITY OF SOUTH ALABAMA, priority 2011, dated 2016)
